The values that follow come from US11236078B2, “Heterocyclic inhibitors of the sodium channel” (priority 2014, dated 2022).

Common to all, as to assay type: cell-based
The target of assay [1] is T1, human Nav1.7 (hNav1.7) (Homo sapiens, UniProt Q15858).
T1 construct: expressed in transfected cells
The assay is described as follows: hNav1.7 slow inactivation block, manual patchclamp. The settings on record: HEK 293F cells stably expressing hNav1.7, slow inactivation induced in approximately 50% of channels. From the text: (§1) The generation of HEK 293F cell lines stably expressing human Nav1.7 (h Nav1.7), human Nav1.5 (hNav1.5) and rat Nav1.2 (r Nav1.2) was achieved by subcloning SCN9A, SCN5A, and SCN2A genes into inducible expression vectors followed by transfection into target cells using standard techniques. In the case of h Nav1.7, an expression vector encoding the human Navβ1 auxiliary subunit gene, SCN1B, was co-transfected with the expression vector bearing the SCN9A gene. Clones were selected using appropriate selection agents (0.3 mg/mL Zeocin and 0.8 mg/mL Geneticin) and maintained in Dulbecco's Modified Eagle medium, 10% fetal bovine serum, 1% non-essential amino acids to ˜80% confluence at 37° C. in a humidified incubator with 95% atmosphere and 5% CO2.
(§2) On the day of each experiment, cells that were grown to 80% confluence in a T75 flask were harvested for use on PatchXpress (Molecular Devices, CA, USA). Following a recovery period at 37° C. in a humidified incubator with 95% atmosphere and 5% CO2 in Dulbecco's Modified Eagle Medium, the media was replaced with an external recording solution containing (in mM): 90 TEACl, 50 NaCl, 1.8 CaCl2, 1 MgCl2, 10 HEPES, 10 glucose, adjusted to pH 7.4 with TEAOH and 300 mOsm with sucrose. The internal recording solution contained (in mM): 129 CsF, 2 MgCl2, 11 EGTA, 10 HEPES, 6 NaCl, 3 Na2ATP adjusted to pH 7.2 with CsOH and 280 mOsm with sucrose. The automated liquid handling facility of PatchXpress dispensed cells and added compound. Modulation of Nav1.7 channels by compounds was assessed by promoting the channels into the inactivated state using a conditioning voltage pulse of variable amplitude, followed by a brief hyperpolarizing pulse with a subsequent depolarized voltage step to measure the current amplitude in the presence and absence of compound.
(§3) In some cases, the potency of compounds was measured using either the Patchliner automated patch clamp platform (Nanion) or manual patch clamp techniques. Both approaches allowed the compounds to be characterized based upon the ability of a compound to modulate use- and/or state-dependence across human Nav1.7 (hNav1.7), human Nav1.5 (hNav1.5) and rat Nav1.2 (rNav1.2). The potency data is tabulated in Table 2 and is represented by six data fields. Three of the six fields represent potency data measured with the Patchliner automated platform under varying use- and state-dependent electrophysiology protocols similar to the PatchXpress protocols detailed above. For example, the second data column describes the potency of compounds in their ability to block 50% of Nav1.7 channels when the channel is repetitively activated by depolarizing voltage potentials to induce slow inactivation in approximately 50% of channels (Table 2: h Nav1.7: IC50 Slow Inactivation Block, Automated Patchclamp). The next three data fields describe the data generated from manual patchclamp electrophysiology measurements using similar methods to those employed for automated patchclamp studies.

The target of assay [2] is T1, human Nav1.7 (hNav1.7). As to the kind of experiment: hNav1.7 slow inactivation block, automated patchclamp. The conditions noted are these: HEK 293F cells stably expressing hNav1.7, slow inactivation induced in approximately 50% of channels.
Excerpt: as §1, §2, §3

Assay [3] deals with T2, human Nav1.5 (hNav1.5) (Homo sapiens, UniProt Q14524).
T2 construct: expressed in transfected cells
The assay is described as follows: hNav1.5 slow inactivation block, manual patchclamp. The settings on record: HEK 293F cells stably expressing hNav1.5.
Excerpt: as §1, with “CO2. […]” for “CO2.”
as §2, §3

Assay [4] addresses T3, rat Nav1.2 (rNav1.2) (Rattus norvegicus, UniProt P04775).
T3 construct: expressed in transfected cells
As to the kind of experiment: rNav1.2 slow inactivation block, manual patchclamp. The settings on record: HEK 293F cells stably expressing rNav1.2.
Excerpt: as §1, §2, §3

The target of assay [5] is T3, rat Nav1.2 (rNav1.2). The assay is described as follows: rNav1.2 slow inactivation block, automated patchclamp. The settings on record: HEK 293F cells stably expressing rNav1.2.
Excerpt: as §1, §2, §3

In assay [6] the target is T2, human Nav1.5 (hNav1.5). As to the kind of experiment: hNav1.5 slow inactivation block, automated patchclamp. The conditions noted are these: HEK 293F cells stably expressing hNav1.5.
Excerpt: as §1
Inhibition of the TTX-resistant Nav1.5 sodium channel, a key cardiac ion channel, can have profound effects on the duration and amplitude of the cardiac action potential and can result in arrhythmias and other heart malfunctions. To assess the potential cardiac liability of compounds at an early stage in the drug discovery process, a Nav1.5 sodium channel screening assay can be performed on Molecular Device's PatchXpress™ automated electrophysiology platform. Under voltage-clamp conditions, Nav1.5 currents can be recorded from HEK cells expressing the human Nav1.5 channel in the absence and presence of increasing concentrations of the test compound to obtain an IC50 value. The external recording solution can contain (in mM): 90 TEACl, 50 NaCl, 1.8 CaCl, 1 MgCl2, 10 HEPES, 10 glucose, adjusted to pH 7.4 with TEA-OH and to 300 mOsm with sucrose (if necessary), while the internal patch pipette solution contained (in mM): 129 CsF, 2 MgCl2, 11 EGTA, 10 HEPES, 3 Na2ATP adjusted to pH 7.2 with CsOH and to 290 mOsm with sucrose (if necessary). Nav1.5 channel currents can be evoked using a cardiac action potential waveform at 1 Hz, digitized at 31.25 kHz and low-pass filtered at 12 kHz.
as §2
In some cases, the potency of compounds was measured using either the Patchliner automated patch clamp platform (Nanion) or manual patch clamp techniques. Both approaches allowed the compounds to be characterized based upon the ability of a compound to modulate use- and/or state-dependence across human Nav1.7 (hNav1.7), human Nav1.5 (hNav1.5) and rat Nav1.2 (rNav1.2). The potency data is tabulated in Table 2 and is represented by six data fields. Three of the six fields represent potency data measured with the Patchliner automated platform under varying use- and state-dependent electrophysiology protocols similar to the PatchXpress protocols detailed above. […]

T1 sequence (Q15858 whole entry): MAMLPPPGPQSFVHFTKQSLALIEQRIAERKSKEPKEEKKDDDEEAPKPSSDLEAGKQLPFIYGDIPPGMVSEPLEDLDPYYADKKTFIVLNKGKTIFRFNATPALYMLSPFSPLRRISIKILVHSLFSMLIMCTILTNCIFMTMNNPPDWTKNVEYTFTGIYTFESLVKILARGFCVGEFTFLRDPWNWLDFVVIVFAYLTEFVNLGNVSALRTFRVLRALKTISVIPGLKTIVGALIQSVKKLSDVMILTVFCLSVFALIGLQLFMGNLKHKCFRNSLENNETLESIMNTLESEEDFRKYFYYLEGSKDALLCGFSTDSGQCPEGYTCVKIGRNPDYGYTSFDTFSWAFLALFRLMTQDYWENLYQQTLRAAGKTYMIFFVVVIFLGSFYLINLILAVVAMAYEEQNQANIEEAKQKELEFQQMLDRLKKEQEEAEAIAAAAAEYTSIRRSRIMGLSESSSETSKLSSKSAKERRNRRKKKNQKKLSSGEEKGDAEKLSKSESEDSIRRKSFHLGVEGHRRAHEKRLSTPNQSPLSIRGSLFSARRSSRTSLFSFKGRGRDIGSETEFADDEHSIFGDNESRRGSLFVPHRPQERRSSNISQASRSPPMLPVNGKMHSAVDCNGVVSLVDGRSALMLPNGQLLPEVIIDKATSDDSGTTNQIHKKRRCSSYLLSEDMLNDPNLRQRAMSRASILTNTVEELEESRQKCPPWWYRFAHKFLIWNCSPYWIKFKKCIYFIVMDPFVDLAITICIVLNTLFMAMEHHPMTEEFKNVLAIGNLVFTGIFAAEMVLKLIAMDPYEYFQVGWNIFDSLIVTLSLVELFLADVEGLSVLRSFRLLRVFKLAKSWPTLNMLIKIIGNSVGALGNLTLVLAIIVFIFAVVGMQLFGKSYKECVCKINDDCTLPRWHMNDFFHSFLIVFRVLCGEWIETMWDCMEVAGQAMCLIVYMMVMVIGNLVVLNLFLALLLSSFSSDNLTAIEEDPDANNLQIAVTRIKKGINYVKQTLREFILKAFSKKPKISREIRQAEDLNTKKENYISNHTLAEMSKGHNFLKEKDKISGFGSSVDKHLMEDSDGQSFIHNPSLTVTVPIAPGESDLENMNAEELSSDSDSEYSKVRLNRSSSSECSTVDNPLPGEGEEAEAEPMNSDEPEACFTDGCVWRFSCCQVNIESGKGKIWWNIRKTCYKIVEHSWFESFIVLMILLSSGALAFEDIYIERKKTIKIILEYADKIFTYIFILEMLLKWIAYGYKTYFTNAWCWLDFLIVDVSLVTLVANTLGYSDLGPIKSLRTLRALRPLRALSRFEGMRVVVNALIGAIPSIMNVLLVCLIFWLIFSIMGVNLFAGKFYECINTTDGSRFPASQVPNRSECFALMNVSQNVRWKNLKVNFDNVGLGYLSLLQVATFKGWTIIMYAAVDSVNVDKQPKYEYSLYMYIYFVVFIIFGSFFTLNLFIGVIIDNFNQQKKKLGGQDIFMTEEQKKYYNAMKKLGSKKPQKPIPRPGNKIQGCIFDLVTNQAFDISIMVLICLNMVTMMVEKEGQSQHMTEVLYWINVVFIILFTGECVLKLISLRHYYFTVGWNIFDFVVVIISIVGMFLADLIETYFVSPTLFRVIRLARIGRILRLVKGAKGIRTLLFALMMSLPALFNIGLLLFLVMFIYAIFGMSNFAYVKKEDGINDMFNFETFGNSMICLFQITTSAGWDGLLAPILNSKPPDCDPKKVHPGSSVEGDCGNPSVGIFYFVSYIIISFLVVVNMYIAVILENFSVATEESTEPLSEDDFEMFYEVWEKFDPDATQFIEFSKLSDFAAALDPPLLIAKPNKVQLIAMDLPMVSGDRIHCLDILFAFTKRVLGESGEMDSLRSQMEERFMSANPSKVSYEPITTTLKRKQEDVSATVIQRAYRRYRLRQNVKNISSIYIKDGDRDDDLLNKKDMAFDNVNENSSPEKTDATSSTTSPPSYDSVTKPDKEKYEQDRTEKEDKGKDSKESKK
T1 sequence (Q07699 19-218 partner): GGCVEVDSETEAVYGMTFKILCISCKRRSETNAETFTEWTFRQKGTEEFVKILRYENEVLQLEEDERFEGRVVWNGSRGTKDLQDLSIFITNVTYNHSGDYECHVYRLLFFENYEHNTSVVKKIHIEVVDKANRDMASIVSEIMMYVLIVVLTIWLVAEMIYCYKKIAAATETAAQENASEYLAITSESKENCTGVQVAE
T3 sequence (P04775 whole entry): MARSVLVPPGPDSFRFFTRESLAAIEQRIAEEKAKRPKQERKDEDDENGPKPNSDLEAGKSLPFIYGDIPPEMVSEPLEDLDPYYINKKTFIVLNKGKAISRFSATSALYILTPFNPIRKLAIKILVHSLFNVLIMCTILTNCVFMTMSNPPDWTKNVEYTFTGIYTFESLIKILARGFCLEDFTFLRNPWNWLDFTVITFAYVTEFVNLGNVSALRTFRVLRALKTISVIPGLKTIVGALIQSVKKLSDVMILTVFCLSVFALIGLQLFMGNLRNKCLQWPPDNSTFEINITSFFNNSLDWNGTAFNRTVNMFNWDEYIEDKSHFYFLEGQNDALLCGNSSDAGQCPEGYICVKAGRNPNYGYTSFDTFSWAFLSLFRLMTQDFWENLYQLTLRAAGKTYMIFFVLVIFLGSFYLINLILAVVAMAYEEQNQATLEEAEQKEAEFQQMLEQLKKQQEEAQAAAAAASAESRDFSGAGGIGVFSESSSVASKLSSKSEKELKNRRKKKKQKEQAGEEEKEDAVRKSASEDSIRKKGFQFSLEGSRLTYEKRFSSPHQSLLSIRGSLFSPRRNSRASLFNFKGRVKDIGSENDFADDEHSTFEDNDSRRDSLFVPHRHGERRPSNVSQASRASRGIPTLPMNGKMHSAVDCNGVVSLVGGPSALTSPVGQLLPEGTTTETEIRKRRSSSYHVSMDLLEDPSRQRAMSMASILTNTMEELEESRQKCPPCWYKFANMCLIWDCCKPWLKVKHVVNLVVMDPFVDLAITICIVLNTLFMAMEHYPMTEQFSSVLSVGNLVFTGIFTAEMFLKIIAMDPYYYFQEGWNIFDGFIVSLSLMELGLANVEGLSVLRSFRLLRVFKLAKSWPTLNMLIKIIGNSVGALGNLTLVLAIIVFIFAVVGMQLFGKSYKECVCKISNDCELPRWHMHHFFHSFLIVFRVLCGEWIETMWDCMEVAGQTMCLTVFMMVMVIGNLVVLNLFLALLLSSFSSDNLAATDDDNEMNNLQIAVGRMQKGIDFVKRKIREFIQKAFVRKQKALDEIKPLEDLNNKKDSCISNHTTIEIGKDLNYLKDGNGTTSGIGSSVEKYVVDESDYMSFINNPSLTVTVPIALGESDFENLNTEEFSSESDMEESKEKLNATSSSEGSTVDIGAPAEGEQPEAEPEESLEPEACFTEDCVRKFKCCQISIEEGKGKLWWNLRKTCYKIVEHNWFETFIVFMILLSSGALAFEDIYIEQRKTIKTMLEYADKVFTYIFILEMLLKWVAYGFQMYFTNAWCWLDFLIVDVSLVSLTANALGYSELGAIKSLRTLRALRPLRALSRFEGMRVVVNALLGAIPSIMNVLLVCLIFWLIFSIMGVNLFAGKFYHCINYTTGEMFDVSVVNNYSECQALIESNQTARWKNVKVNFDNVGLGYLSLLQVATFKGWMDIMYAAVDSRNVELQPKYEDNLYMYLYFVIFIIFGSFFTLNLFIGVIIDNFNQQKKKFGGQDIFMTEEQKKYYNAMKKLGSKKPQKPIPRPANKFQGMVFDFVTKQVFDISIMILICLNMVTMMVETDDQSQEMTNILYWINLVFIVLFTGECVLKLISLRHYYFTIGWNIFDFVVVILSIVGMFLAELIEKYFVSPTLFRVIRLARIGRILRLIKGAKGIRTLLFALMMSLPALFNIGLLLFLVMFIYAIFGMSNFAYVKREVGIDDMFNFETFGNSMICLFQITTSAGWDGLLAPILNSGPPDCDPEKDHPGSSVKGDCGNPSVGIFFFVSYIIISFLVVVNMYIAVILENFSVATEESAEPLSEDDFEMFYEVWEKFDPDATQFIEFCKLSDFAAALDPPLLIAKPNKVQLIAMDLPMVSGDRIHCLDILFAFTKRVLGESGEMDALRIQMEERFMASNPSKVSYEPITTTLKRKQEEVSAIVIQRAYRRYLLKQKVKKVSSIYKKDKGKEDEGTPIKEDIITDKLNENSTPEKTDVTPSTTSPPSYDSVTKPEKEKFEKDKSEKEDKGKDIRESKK

In the case of `O=C(NCc1cc(F)c(Oc2cc(C(F)(F)F)cc(C(F)(F)F)c2)cc1F)[C@@H]1CCCN1` [Compound 4, (2S)-N-({4-[3,5-bis(trifluoromethyl)phenoxy]-2,5-difluorophenyl}methyl)pyrrolidine-2-carboxamide], the IC50 worked out at 217 nM in assay [1]; 977 nM in assay [2]; 116 nM in assay [3]; 146 nM in assay [4]; 1870 nM in assay [5].
Regarding `O=S(=O)(Nc1ncns1)c1cc(F)c(Oc2cc(C(F)(F)F)cc(C(F)(F)F)c2)cc1F` [Compound 5, 4-[3,5-bis(trifluoromethyl)phenoxy]-2,5-difluoro-N-(1,2,4-thiadiazol-5-yl)benzene-1-sulfonamide], the IC50 came out at 393 nM in assay [1], 7250 nM in assay [2], 16600 nM in assay [3] and 19400 nM in assay [4].
For `O=C(NCc1cc(F)c(Oc2cc(C(F)(F)F)cc(C(F)(F)F)c2)cc1F)c1ncns1` [Compound 17, N-({4-[3,5-bis(trifluoromethyl)phenoxy]-2,5-difluorophenyl}methyl)-1,2,4-thiadiazole-5-carboxamide], the IC50 in assay [1] is 470 nM; in assay [2], 8430 nM; in assay [3] it was roughly 2500 nM; in assay [4], 479 nM; in assay [5], 18700 nM.
Regarding `O=C(Cc1cccc(-c2cc(C(F)(F)F)cc(C(F)(F)F)c2)c1)Nc1ncns1` [Compound 21, 2-{3-[3,5-bis(trifluoromethyl)phenyl]phenyl}-N-(1,2,4-thiadiazol-5-yl)acetamide], the IC50 in assay [1] is roughly 383 nM; in assay [3], 550 nM; in assay [4] it was roughly 389 nM.
Consider `O=S(=O)(Nc1ncns1)c1cc(F)c(Oc2cc(F)cc(Cl)c2)cc1F` [Compound 29, 4-(3-chloro-5-fluorophenoxy)-2,5-difluoro-N-(1,2,4-thiadiazol-5-yl)benzene-1-sulfonamide], for which the IC50 was 678 nM in assay [1]; 14600 nM in assay [2]; roughly 7570 nM in assay [3]; greater than 32000 nM in assay [4]; greater than 32000 nM in assay [5].
In the case of `O=S(=O)(Nc1ncns1)c1cc(F)c(Oc2cc(C3CNC3)cc(C(F)(F)F)c2)cc1F` [Compound 31, 4-(3-(azetidin-3-yl)-5-(trifluoromethyl)phenoxy)-2,5-difluoro-N-(1,2,4-thiadiazol-5-yl)benzenesulfonamide], the IC50 in assay [1] is 286 nM; in assay [2] it was 750 nM; in assay [3], roughly 1460 nM; in assay [4], 387 nM; in assay [5], roughly 1220 nM.
In the case of `O=S(=O)(Nc1ncns1)c1cc(F)c(Oc2cc(Br)cc(C(F)(F)F)c2)cc1F` [Compound 33, 4-[3-bromo-5-(trifluoromethyl)phenoxy]-2,5-difluoro-N-(1,2,4-thiadiazol-5-yl)benzene-1-sulfonamide], the IC50 in assay [1] is 118 nM; in assay [2], roughly 10000 nM; in assay [3], roughly 4010 nM; in assay [4] it was roughly 4910 nM.
On the same counts, the results for `COc1cc(Oc2cc(F)c(S(=O)(=O)Nc3ncns3)cc2F)cc(C(F)(F)F)c1` [Compound 34, 2,5-difluoro-4-[3-methoxy-5-(trifluoromethyl)phenoxy]-N-(1,2,4-thiadiazol-5-yl)benzene-1-sulfonamide] are 186 nM, roughly 6250 nM, 1600 nM and roughly 2740 nM.
On the same counts, the results for `O=S(=O)(Nc1ncns1)c1cc(F)c(Oc2cc(Cl)cc(C(F)(F)F)c2)cc1F` [Compound 36, 4-[3-chloro-5-(trifluoromethyl)phenoxy]-2,5-difluoro-N-(1,2,4-thiadiazol-5-yl)benzene-1-sulfonamide] are 256 nM, roughly 11900 nM, roughly 4960 nM and greater than 10000 nM.
`CCCOc1cc(Oc2cc(F)c(S(=O)(=O)Nc3ncns3)cc2F)cc(C(F)(F)F)c1` [Compound 37, 2,5-difluoro-4-[3-propoxy-5-(trifluoromethyl)phenoxy]-N-(1,2,4-thiadiazol-5-yl)benzene-1-sulfonamide]: the IC50 in assay [1] is roughly 413 nM; in assay [2], roughly 17600 nM; in assay [3], 7210 nM; in assay [4], greater than 10000 nM.
For the compound `COc1cc(Oc2cc(F)c(S(=O)(=O)Nc3nc(C)ns3)cc2F)cc(C(F)(F)F)c1` [Compound 40, 2,5-difluoro-4-[3-methoxy-5-(trifluoromethyl)phenoxy]-N-(3-methyl-1,2,4-thiadiazol-5-yl)benzene-1-sulfonamide], the IC50 in assay [1] was greater than 3200 nM; in assay [2] it was greater than 32000 nM; in assay [6], greater than 32000 nM.
As to `COc1cc(Oc2cc(F)c(S(=O)(=O)Nc3nc(Cc4ccccc4)ns3)cc2F)cc(C(F)(F)F)c1` [Compound 41, N-(3-benzyl-1,2,4-thiadiazol-5-yl)-2,5-difluoro-4-[3-methoxy-5-(trifluoromethyl)phenoxy]benzene-1-sulfonamide], the values for the IC50 in assay [1], in assay [2] and in assay [6] were greater than 3200 nM, greater than 32000 nM and greater than 32000 nM, respectively.
In the case of `COc1cc(Oc2cc(F)c(S(=O)(=O)Nc3nc(CN4CCOCC4)ns3)cc2F)cc(C(F)(F)F)c1` [Compound 45, 2,5-difluoro-4-[3-methoxy-5-(trifluoromethyl)phenoxy]-N-[3-(morpholin-4-ylmethyl)-1,2,4-thiadiazol-5-yl]benzene-1-sulfonamide], the IC50 was greater than 10000 nM in assay [1], greater than 32000 nM in assay [2] and greater than 32000 nM in assay [6].
`O=C(NCc1cccc(-c2cc(C(F)(F)F)cc(C(F)(F)F)c2)c1)C1CCCC1` [Compound 56, N-({3-[3,5-bis(trifluoromethyl)phenyl]phenyl}methyl)cyclopentanecarboxamide]: the 50% inhibitory concentration (IC50) is 173 nM in assay [1]; 712 nM in assay [2]; 462 nM in assay [3]; 219 nM in assay [4]; 5850 nM in assay [5].
